# Reference: ChEMBL document CHEMBL1759930, “Structural requirements of (E)-6-benzylidene-4a-methyl-4,4a,5,6,7,8-hexahydronaphthalen-2(3H)-one derivatives as novel melanogenesis inhibitors” (Bioorg Med Chem Lett, 2011)
# pIC50: −log10 of the molar value.
# Key:
# [1] = tested on: B16; assay: Inhibition of alpha-MSH -stimulated melanogenesis in mouse B16 cells assessed as melanin release after 3 days; format: functional, cell-based; conditions: B16, 72 h
# [2] = tested on: B16; assay: Inhibition of alpha-MSH -stimulated melanogenesis in mouse B16 cells assessed as melanin release at 10 uM after 3 days; format: functional; conditions: B16, 72 h
SMILES,pIC50 [1],inhibition at 10 µM [2] [%]
Cc1ccc(/C=C2\CCCC(C)C2=O)cc1 (stereo not given),< 4.52,< 10
OC[C@H]1O[C@@H](Oc2ccc(O)cc2)[C@H](O)[C@@H](O)[C@@H]1O [ARBUTIN],3.92,–
CC12CCC3(C=C1CCCC2=O)SCCS3 (stereo not given),< 4.52,< 10
CN(C)c1ccc(/C=C2\CCC3=CC4(CCC3(C)C2=O)SCCS4)cc1 (stereo not given),5.12,65
COc1ccc(/C=C2\CCC3=CC(=O)CCC3(C)C2=O)cc1 (stereo not given),5.22,72
CC12CCC3(C=C1CC/C(=C\c1ccc(Cl)cc1)C2=O)SCCS3 (stereo not given),< 4.52,35
CC12CCC3(C=C1CC/C(=C\c1ccc(OCc4ccccc4)cc1)C2=O)SCCS3 (stereo not given),4.87,80
CC12CCC3(C=C1CC/C(=C\c1cccc4ccccc14)C2=O)SCCS3 (stereo not given),4.94,85
COc1ccc(/C=C2\CCC3=CC4(CCC3(C)C2=O)SCCS4)cc1 (stereo not given),5.46,> 100
CC1CCC/C(=C\c2ccc(Cl)cc2)C1=O (stereo not given),< 4.52,< 10
Cc1ccc(/C=C2\CCC3=CC4(CCC3(C)C2=O)SCCS4)cc1 (stereo not given),4.77,> 100
COCOc1ccc(/C=C2\CCC3=CC4(CCC3(C)C2=O)SCCS4)cc1 (stereo not given),5.22,92
COc1ccc(/C=C2\CCCC(C)C2=O)cc1 (stereo not given),< 4.52,< 10
CC12CCC3(C=C1CC/C(=C\c1ccccc1)C2=O)SCCS3 (stereo not given),4.98,85
CC1CCC/C(=C\c2ccc(O)cc2)C1=O (stereo not given),< 4.52,< 10
CCc1ccc(/C=C2\CCC3=CC4(CCC3(C)C2=O)SCCS4)cc1 (stereo not given),4.73,80
COc1ccc(/C=C2\CCC3=CC4(CCC3(C)C2=O)SCCS4)cc1OC (stereo not given),< 4.52,43
CC1CCC/C(=C\c2ccccc2)C1=O (stereo not given),< 4.52,< 10
CC12CCC3(C=C1CC/C(=C\C=C\c1ccccc1)C2=O)SCCS3 (stereo not given),4.78,75
CC12CCC3(C=C1CC/C(=C\c1ccc(O)cc1)C2=O)SCCS3 (stereo not given),5.37,96
CC12CCC3(C=C1CC/C(=C\c1ccc(Cl)c(Cl)c1)C2=O)SCCS3 (stereo not given),4.59,62
CC12CCC3(C=C1CC/C(=C\c1ccc(C(C)(C)C)cc1)C2=O)SCCS3 (stereo not given),4.87,83
Cc1ccc(/C=C2\CCC3=CC(=O)CCC3(C)C2=O)cc1 (stereo not given),4.64,60
